Values quoted from earlier work in patent publication US20090098211A1, “SOLID DOSAGE FORMS” (priority 2007, published 2009).

solubility in water (in words) (water): practically insoluble in water | water solubility (water at 25° C.): about 2 μg per mL
Structure (SMILES): CN1CC(=O)N2[C@H](c3ccc4c(c3)OCO4)c3[nH]c4ccccc4c3C[C@@H]2C1=O [Tadalafil, (6R-trans)-6-(1,3-benzodioxol-5-yl)-2,3,6,7,12,12a-hexahydro-2-methyl-pyrazino[1′,2′:1,6]pyrido[3,4-b]indole-1,4-dione]
